According to ChEMBL document CHEMBL1140201, “Insights into ligand-elicited activation of human constitutive androstane receptor based on novel agonists and three-dimensional quantitative structure-activity relationship” (J Med Chem, 2008):

Experiments:
Type in all cases: cell-based
[1] = target: T1, CAR (NR1I3) His203Ala mutant (Homo sapiens, UniProt Q14994, H203A); experiment: Activation of human CAR His203Ala mutant expressed in human C3A cells at 10 uM after 24 hrs by GAL4-dependent luciferase reporter gene assay relative to control; settings: C3A cells expressing human CAR His203Ala mutant, read-out: FC
T1 sequence (Q14994 whole entry H203A, the tested form may be a part): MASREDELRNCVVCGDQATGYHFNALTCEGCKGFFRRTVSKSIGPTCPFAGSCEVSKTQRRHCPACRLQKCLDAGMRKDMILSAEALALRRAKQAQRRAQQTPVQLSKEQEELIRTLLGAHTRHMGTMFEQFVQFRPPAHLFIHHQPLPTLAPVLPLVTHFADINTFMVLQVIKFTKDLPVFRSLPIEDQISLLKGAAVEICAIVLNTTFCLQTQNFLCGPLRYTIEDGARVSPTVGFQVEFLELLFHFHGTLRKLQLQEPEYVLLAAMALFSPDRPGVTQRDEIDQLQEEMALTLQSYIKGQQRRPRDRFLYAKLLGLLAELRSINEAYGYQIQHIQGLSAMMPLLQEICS

[2] = target: T2, CAR (NR1I3) ligand-binding domain, wild type (Homo sapiens, UniProt Q14994); experiment: Activation of human CAR-LBD expressed in human C3A cells at 10 uM after 24 hrs by GAL4-dependent luciferase reporter gene assay relative to control; settings: C3A cells expressing human CAR-LBD, read-out: FC
T2 sequence (Q14994 whole entry): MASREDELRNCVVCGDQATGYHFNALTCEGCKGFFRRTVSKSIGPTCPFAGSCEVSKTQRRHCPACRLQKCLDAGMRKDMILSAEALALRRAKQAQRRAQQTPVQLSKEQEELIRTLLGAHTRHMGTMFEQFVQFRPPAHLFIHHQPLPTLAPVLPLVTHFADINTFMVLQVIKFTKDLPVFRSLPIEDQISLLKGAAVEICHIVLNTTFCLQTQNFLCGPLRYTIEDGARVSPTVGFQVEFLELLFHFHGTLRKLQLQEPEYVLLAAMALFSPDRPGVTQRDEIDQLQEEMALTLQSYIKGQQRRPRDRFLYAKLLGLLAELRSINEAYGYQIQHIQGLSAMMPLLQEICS

[3] = target: T3, CAR (NR1I3) Asn165Ala mutant (Homo sapiens, UniProt Q14994, N165A); experiment: Activation of human CAR Asn165Ala mutant expressed in human C3A cells at 10 uM after 24 hrs by GAL4-dependent luciferase reporter gene assay relative to control; settings: C3A cells expressing human CAR Asn165Ala mutant, read-out: FC
T3 sequence (Q14994 whole entry N165A, the tested form may be a part): as the sequence (Q14994 whole entry H203A, the tested form may be a part) above, with N165A, A203H counted along it

[4] = target: T4, CAR (NR1I3) Phe161Ala mutant (Homo sapiens, UniProt Q14994, F161A); experiment: Activation of human CAR Phe161Ala mutant expressed in human C3A cells at 10 uM after 24 hrs by GAL4-dependent luciferase reporter gene assay relative to control; settings: C3A cells expressing human CAR Phe161Ala mutant, read-out: FC
T4 sequence (Q14994 whole entry F161A, the tested form may be a part): as the sequence (Q14994 whole entry H203A, the tested form may be a part) above, with F161A, A203H counted along it

[5] = target: T5, CAR (NR1I3) Ile164Ala mutant (Homo sapiens, UniProt Q14994, I164A); experiment: Activation of human CAR Ile164Ala mutant expressed in human C3A cells at 10 uM after 24 hrs by GAL4-dependent luciferase reporter gene assay relative to control; settings: C3A cells expressing human CAR Ile164Ala mutant, read-out: FC
T5 sequence (Q14994 whole entry I164A, the tested form may be a part): as the sequence (Q14994 whole entry H203A, the tested form may be a part) above, with I164A, A203H counted along it

[6] = target: T4, CAR (NR1I3) Phe161Ala mutant; experiment: Activation of human CAR Phe161Ala mutant expressed in human C3A cells at 4 uM after 24 hrs by GAL4-dependent luciferase reporter gene assay relative to control; settings: C3A cells expressing human CAR Phe161Ala mutant, read-out: FC
[7] = target: T1, CAR (NR1I3) His203Ala mutant; experiment: Activation of human CAR His203Ala mutant expressed in human C3A cells at 4 uM after 24 hrs by GAL4-dependent luciferase reporter gene assay relative to control; settings: C3A cells expressing human CAR His203Ala mutant, read-out: FC
[8] = target: T2, CAR (NR1I3) ligand-binding domain, wild type; experiment: Activation of human CAR-LBD expressed in human C3A cells at 4 uM after 24 hrs by GAL4-dependent luciferase reporter gene assay relative to control; settings: C3A cells expressing human CAR-LBD, read-out: FC
[9] = target: T5, CAR (NR1I3) Ile164Ala mutant; experiment: Activation of human CAR Ile164Ala mutant expressed in human C3A cells at 4 uM after 24 hrs by GAL4-dependent luciferase reporter gene assay relative to control; settings: C3A cells expressing human CAR Ile164Ala mutant, read-out: FC
[10] = target: T3, CAR (NR1I3) Asn165Ala mutant; experiment: Activation of human CAR Asn165Ala mutant expressed in human C3A cells at 4 uM after 24 hrs by GAL4-dependent luciferase reporter gene assay relative to control; settings: C3A cells expressing human CAR Asn165Ala mutant, read-out: FC

fold induction at 24 h, 10 µM [1]	fold induction at 24 h, 10 µM [2]	fold induction at 24 h, 10 µM [3]	fold induction at 24 h, 10 µM [4]	fold induction at 24 h, 10 µM [5]	fold induction at 24 h, 4 µM [6]	fold induction at 24 h, 4 µM [7]	fold induction at 24 h, 4 µM [8]	fold induction at 24 h, 4 µM [9]	fold induction at 24 h, 4 µM [10]	Compound
1.53	1.37	1.33	1.15	1.37	–	–	–	–	–	Cc1ccc(NC(=O)NC2CCC2)cc1C
1.52	5.22	1.05	1.3	6.66	–	–	–	–	–	C[C@@H]1Cc2ccccc2N1S(=O)(=O)c1cccc2nsnc12
2.62	7.92	1	0.94	1.55	–	–	–	–	–	CCc1ccc(S(=O)(=O)Nc2ccccc2C(C)(C)C)cc1
1.92	2.51	1.19	3.36	2.89	–	–	–	–	–	CCc1cc(Br)ccc1S(=O)(=O)NCc1ccccc1
1.03	4.88	0.81	1.52	1.48	–	–	–	–	–	CCOc1ccccc1CCCNC(=O)Nc1c(CC)cccc1CC
1.43	1.45	1.08	1.38	0.84	–	–	–	–	–	Cc1cccc(NC(=O)N2CCN(c3cccc(C)c3)[C@H](C)C2)c1
3.21	1.63	1.17	0.92	2.26	–	–	–	–	–	O=S(=O)(NCCSCc1ccccc1)c1ccc(Cl)cc1
2.06	2.39	1.23	0.96	1.08	–	–	–	–	–	CCC(=O)NCC(=O)N1CCCN1C(=O)Cc1c(C)[nH]c2ccccc12
1.9	2.7	2.2	1.01	1.49	–	–	–	–	–	CCOc1ccccc1N1CCN(Cc2ccc(C)s2)CC1
1.18	1.32	1.01	1	1.06	–	–	–	–	–	O=S(=O)(Nc1nc2c(s1)CCCC2)c1ccc(Br)s1
4.22	6.35	1.22	1.56	1.42	–	–	–	–	–	CCN(c1ccccc1)S(=O)(=O)c1ccc(C(C)(C)CC)cc1
5.44	4.09	2.07	4.4	6.61	–	–	–	–	–	CCCCN(c1ccccc1)S(=O)(=O)c1cccc2ccccc12
1.24	1.4	1.19	1.3	1.13	–	–	–	–	–	O=C1CS[C@H](c2ccncc2)N1Cc1nc2ccccc2[nH]1
1.43	1.76	1.7	1.57	1.54	–	–	–	–	–	O=S(=O)(NCc1csc2ccccc12)c1cccs1
2.26	2.03	0.99	1.12	2.33	–	–	–	–	–	CN(C)c1ccc(NS(=O)(=O)c2ccc(Br)cc2)cc1
1.86	3.28	0.53	0.95	1.42	–	–	–	–	–	O=S(=O)(NCC(c1ccccc1)c1ccccc1)c1cccs1
2.16	2.95	1.14	1.21	2.86	–	–	–	–	–	O=C(NCC1CCCCC1)N[C@H]1C[C@@H]1c1ccccc1
3.29	5.5	1.1	1.08	4.14	–	–	–	–	–	CCN(CC)c1ccc(NS(=O)(=O)c2ccc(Cl)cc2)c(C)c1
–	–	–	–	–	13.1	0.21	4.34	21.3	4.47	Clc1ccccc1C(c1ccccc1)(c1ccccc1)n1ccnc1 [CLOTRIMAZOLE]
3.48	4.17	3.64	1.53	3.74	–	–	–	–	–	Cc1cccc(NC(=O)N(Cc2ccccc2)Cc2ccccc2)c1
1.84	3.68	5.18	0.94	1.66	–	–	–	–	–	CSc1ccccc1NS(=O)(=O)c1cc(Cl)sc1Cl
1.28	2.97	1.87	0.97	1.3	–	–	–	–	–	CSCCN1C(=O)CS[C@@H]1c1ccc(Br)s1
2.83	3.87	1.13	1.17	1.87	–	–	–	–	–	COc1ccc(OC)c(CN2C(=O)CS[C@@H]2c2ccc(F)c(Br)c2)c1
4.17	2.6	1.76	0.97	1.24	–	–	–	–	–	CCCCCNC(=O)Nc1c(C)cccc1C(C)(C)C
3.68	3.8	1.82	1.22	1.56	–	–	–	–	–	CCCc1ccc(S(=O)(=O)N(Cc2ccccc2)c2ccc(OC)cc2)cc1
10.1	4.47	2.75	3.62	4.57	–	–	–	–	–	CCc1cc(Br)ccc1S(=O)(=O)Nc1ccccc1[C@@H](C)CC
1.49	2.23	1.98	1.24	1.36	–	–	–	–	–	Cn1ccnc1CN1CCCN(C(=O)Nc2ccc(F)c(F)c2F)CC1

Compound	fold induction at 24 h, 10 µM [1]	fold induction at 24 h, 10 µM [2]	fold induction at 24 h, 10 µM [3]	fold induction at 24 h, 10 µM [4]	fold induction at 24 h, 10 µM [5]	fold induction at 24 h, 4 µM [6]	fold induction at 24 h, 4 µM [7]	fold induction at 24 h, 4 µM [8]	fold induction at 24 h, 4 µM [9]	fold induction at 24 h, 4 µM [10]
CCc1cccc(NC(=O)N(CC)[C@H](C)Cc2ccc(OC)cc2)c1	1.88	1.86	1.72	0.92	1.32	–	–	–	–	–
CC(C)c1ccc(OP(=O)(Oc2ccc(C(C)C)cc2)Oc2ccc(C(C)C)cc2)cc1	6.76	2.45	2.66	1.06	1.67	–	–	–	–	–
O=P(Oc1ccccc1)(Oc1ccccc1)Oc1ccccc1 [TRIPHENYL PHOSPHATE]	2.79	3.96	3.01	0.82	6.42	–	–	–	–	–
